From publication PMC5515969, “Effects of 31 FDA approved small-molecule kinase inhibitors on isolated rat liver mitochondria” (Archives of Toxicology, 2016)
Where two headings read alike, the source gives them in different places.

Key:
RCC II = biological target: T1, RCC II (Rattus norvegicus, UniProt P21913+Q641Z9+Q6PCT8+Q920L2); experiment: RCC II activity in submitochondrial particles; assay type: biochemical; design: key: activity relative to DMSO-treated controls (control set as 1 = 100%)
T1 construct: Submitochondrial particles were prepared by subjecting the intact mitochondria to three successive freeze–thaw cycles; from tissue; host or cells: rat liver mitochondria, used as submitochondrial particles
T1 sequence (Q920L2 35-656): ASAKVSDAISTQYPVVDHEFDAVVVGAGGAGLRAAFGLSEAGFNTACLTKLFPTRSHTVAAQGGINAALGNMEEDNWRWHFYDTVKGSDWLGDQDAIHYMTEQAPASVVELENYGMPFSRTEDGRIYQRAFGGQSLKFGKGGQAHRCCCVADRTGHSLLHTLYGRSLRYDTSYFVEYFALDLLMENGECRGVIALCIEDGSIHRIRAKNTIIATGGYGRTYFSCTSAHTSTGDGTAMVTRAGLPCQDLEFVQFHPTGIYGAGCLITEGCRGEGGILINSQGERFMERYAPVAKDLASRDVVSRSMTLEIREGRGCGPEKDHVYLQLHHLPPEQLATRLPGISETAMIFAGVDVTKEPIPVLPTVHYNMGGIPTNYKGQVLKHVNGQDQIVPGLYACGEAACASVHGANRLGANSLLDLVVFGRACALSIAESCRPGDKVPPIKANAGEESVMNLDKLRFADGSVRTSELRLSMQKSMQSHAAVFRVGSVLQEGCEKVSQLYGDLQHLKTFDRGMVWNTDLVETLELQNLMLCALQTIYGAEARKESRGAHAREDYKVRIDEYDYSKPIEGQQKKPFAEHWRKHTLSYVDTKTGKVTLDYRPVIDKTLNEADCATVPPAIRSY
T1 sequence (P21913 31-282): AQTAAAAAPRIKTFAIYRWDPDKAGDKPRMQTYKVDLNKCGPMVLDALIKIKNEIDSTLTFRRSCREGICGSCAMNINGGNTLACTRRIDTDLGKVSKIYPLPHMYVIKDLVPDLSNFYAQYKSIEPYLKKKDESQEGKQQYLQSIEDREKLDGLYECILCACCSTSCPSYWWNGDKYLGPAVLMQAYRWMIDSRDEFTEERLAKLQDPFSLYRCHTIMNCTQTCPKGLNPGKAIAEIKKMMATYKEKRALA
T1 sequence (Q641Z9 1-169): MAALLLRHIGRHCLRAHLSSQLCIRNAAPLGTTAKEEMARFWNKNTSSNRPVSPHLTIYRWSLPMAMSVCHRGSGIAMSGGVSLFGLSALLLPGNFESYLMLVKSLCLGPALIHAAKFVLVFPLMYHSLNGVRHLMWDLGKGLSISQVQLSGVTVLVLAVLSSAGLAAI
T1 sequence (Q6PCT8 57-159): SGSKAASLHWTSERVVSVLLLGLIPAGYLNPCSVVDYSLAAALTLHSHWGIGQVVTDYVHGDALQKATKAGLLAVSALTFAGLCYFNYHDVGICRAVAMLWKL
Summary of the method: (§1)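 First, submitochondrial particles (1 mg/ml) are incubated with inhibitor for 15 min. Next, complex activities are followed spectrophotometrically, with RCC I taken as the difference between buffers lacking and containing rotenone. Finally, activities are expressed relative to DMSO controls set at 1.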

[1] = test system: isolated rat liver mitochondria; conditions: for Cytochrome c release 1XCmax / Cytochrome c release 2.5XCmax / Cytochrome c release 5XCmax / Cytochrome c release 10XCmax / Cytochrome c release 20XCmax / Cytochrome c release 30XCmax / Cytochrome c release 50XCmax / Cytochrome c release 100XCmax: positive control alamethicin treated samples
RCC V = RCC V activity in submitochondrial particles; assay type: biochemical, rat; conditions: for RCC activity V: 15 min, DMSO-treated = 100; for RCC V at 5XCmax: key: 0 indicates that the drug had no effects (negative)
Summary of the method: as §1

RCC IV = RCC IV activity in submitochondrial particles; assay type: biochemical, rat; design: key to RCC IV at 50XCmax / RCC IV at 100XCmax: activity relative to DMSO-treated controls (control set as 1 = 100%); conditions: for RCC IV at 50XCmax: in %; for RCC activity IV: 15 min, DMSO-treated = 100
Summary of the method: as §1

RCC III = RCC III activity in submitochondrial particles; assay type: biochemical, rat; design: key to RCC III at 100XCmax: activity relative to DMSO-treated controls (control set as 1 = 100%); conditions: for RCC activity III: 15 min, DMSO-treated = 100
Summary of the method: as §1

[2] = test system: isolated rat liver mitochondria; experiment: Mitochondrial inner membrane potential (MMP), Rhodamine 123; assay type: biochemical; conditions: difference in signal between KI and DMSO treated samples at the end of experiments
Excerpt: Fig. 3 KI effects on mitochondrial inner membrane potential (MMP). […] In a, c, data are means and standard derivations from three separate experiments. *p < 0.05 as compared to DMSO-treated samples at the end of experiments. In b, data are means of two independent experiments

[3] = test system: isolated rat liver mitochondria; experiment: Mitochondrial ROS production (CM-H2DCFDA); conditions: DMSO treated samples set as 1
[4] = cited from earlier work
[5] = test system: isolated rat liver mitochondria; experiment: Mitochondrial oxygen consumption (glutamate/malate or succinate driven, state 4 and state 3); assay type: biochemical; conditions: for State 3 respiration driven by glutamate/malate at 1XCmax / State 3 respiration driven by succinate at 1XCmax / State 4 respiration driven by glutamate/malate at 1XCmax / State 4 respiration driven by succinate at 1XCmax / State 3 respiration driven by glutamate/malate at 2.5XCmax / State 3 respiration driven by succinate at 2.5XCmax / State 4 respiration driven by glutamate/malate at 2.5XCmax / State 4 respiration driven by succinate at 2.5XCmax / State 3 respiration driven by glutamate/malate at 5XCmax / State 3 respiration driven by succinate at 5XCmax / State 4 respiration driven by glutamate/malate at 5XCmax / State 4 respiration driven by succinate at 5XCmax / State 3 respiration driven by glutamate/malate at 10XCmax / State 3 respiration driven by succinate at 10XCmax / State 4 respiration driven by glutamate/malate at 10XCmax / State 4 respiration driven by succinate at 10XCmax / State 3 respiration driven by glutamate/malate at 20XCmax / State 3 respiration driven by succinate at 20XCmax / State 4 respiration driven by glutamate/malate at 20XCmax / State 4 respiration driven by succinate at 20XCmax / State 3 respiration driven by glutamate/malate at 30XCmax / State 3 respiration driven by succinate at 30XCmax / State 4 respiration driven by glutamate/malate at 30XCmax / State 4 respiration driven by succinate at 30XCmax / State 3 respiration driven by glutamate/malate at 50XCmax / State 3 respiration driven by succinate at 50XCmax / State 4 respiration driven by glutamate/malate at 50XCmax / State 4 respiration driven by succinate at 50XCmax / State 3 respiration driven by glutamate/malate at 100XCmax / State 3 respiration driven by succinate at 100XCmax / State 4 respiration driven by glutamate/malate at 100XCmax / State 4 respiration driven by succinate at 100XCmax: DMSO treated samples set as 1; for State 3 respiration driven by succinate at 10XCmax: key: 0 indicates that the drug had no effects (negative); for State 3 respiration driven by succinate at 1XCmax: key: 0 indicates that the drug had no effects (negative)
Summary of the method: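 Rat liver mitochondria (1 mg/ml protein) exposed 5 min to kinase inhibitors in 0.1% DMSO, then O2 consumption measured by Clark-type electrode with glutamate/malate or succinate (state 4), ADP added after 3 min (state 3). Rates normalized to 0.1% DMSO controls set to 1.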

[6] = relative to DMSO treated samples

## CC(=O)Nc1cccc(-n2c(=O)n(C3CC3)c(=O)c3c(Nc4ccc(I)cc4F)n(C)c(=O)c(C)c32)c1 [Trametinib]
RCC II; DMSO treated samples set as 1
  RCC II at 1.0XCmax: 0
  RCC II at 2.5XCmax: 0
  RCC II at 5XCmax: 0
  RCC II at 10XCmax: 0
  RCC II at 20XCmax: 0
  RCC II at 30XCmax: 0
  RCC II at 50XCmax: 0
  RCC II at 100XCmax: 0
[1]
  Cytochrome c release 1XCmax: 0
  Cytochrome c release 2.5XCmax: 0
  Cytochrome c release 5XCmax: 0
  Cytochrome c release 10XCmax: 0
  Cytochrome c release 20XCmax: 0
  Cytochrome c release 30XCmax: 0
  Cytochrome c release 50XCmax: 0
  Cytochrome c release 100XCmax: 0
RCC V; DMSO treated samples set as 1
  RCC V at 5XCmax: 0
RCC V; 50XCmax, DMSO treated samples set as 1
  RCC V at 50XCmax: 0
RCC IV; DMSO treated samples set as 1
  RCC IV at 50XCmax: 0
RCC III; 100XCmax
  RCC III at 100XCmax: 0
[2]
  MMP measured by Rhodamine 123 at 1XCmax: 0
  MMP measured by Rhodamine 123 at 2.5XCmax: 0
  MMP measured by Rhodamine 123 at 5XCmax: 0
  MMP measured by Rhodamine 123 at 10XCmax: 0
  MMP measured by Rhodamine 123 at 20XCmax: 0
  MMP measured by Rhodamine 123 at 30XCmax: 0
  MMP measured by Rhodamine 123 at 50XCmax: 0
  MMP measured by Rhodamine 123 at 100XCmax: 0
[3]
  ROS measured by CM-H2DCFDA at 1XCmax: 0
  ROS measured by CM-H2DCFDA at 2.5XCmax: 0
  ROS measured by CM-H2DCFDA at 5XCmax: 0
  ROS measured by CM-H2DCFDA at 10XCmax: 0
  ROS measured by CM-H2DCFDA at 20XCmax: 0
  ROS measured by CM-H2DCFDA at 30XCmax: 0
  ROS measured by CM-H2DCFDA at 50XCmax: 0
  ROS measured by CM-H2DCFDA at 100XCmax: 0
[4]; 1 DILI positive, 0 negative according to labeling, ref product labeling
  DILI potential (based on labeling): 0
[4]; ref FDA product labeling
  DILI potential (based on labeling): 0
[5]
  State 3 respiration driven by glutamate/malate at 1XCmax: 0
  State 3 respiration driven by succinate at 1XCmax: 0
  State 4 respiration driven by glutamate/malate at 1XCmax: 0
  State 4 respiration driven by succinate at 1XCmax: 0
  State 3 respiration driven by glutamate/malate at 2.5XCmax: 0
  State 3 respiration driven by succinate at 2.5XCmax: 0
  State 4 respiration driven by glutamate/malate at 2.5XCmax: 0
  State 4 respiration driven by succinate at 2.5XCmax: 0
  State 3 respiration driven by glutamate/malate at 5XCmax: 0
  State 3 respiration driven by succinate at 5XCmax: 0
  State 4 respiration driven by glutamate/malate at 5XCmax: 0
  State 4 respiration driven by succinate at 5XCmax: 0
  State 3 respiration driven by glutamate/malate at 10XCmax: 0
  State 3 respiration driven by succinate at 10XCmax: 0
  State 4 respiration driven by glutamate/malate at 10XCmax: 0
  State 4 respiration driven by succinate at 10XCmax: 0
  State 3 respiration driven by glutamate/malate at 20XCmax: 0
  State 3 respiration driven by succinate at 20XCmax: 0
  State 4 respiration driven by glutamate/malate at 20XCmax: 0
  State 4 respiration driven by succinate at 20XCmax: 0
  State 3 respiration driven by glutamate/malate at 30XCmax: 0
  State 3 respiration driven by succinate at 30XCmax: 0
  State 4 respiration driven by glutamate/malate at 30XCmax: 0
  State 4 respiration driven by succinate at 30XCmax: 0
  State 3 respiration driven by glutamate/malate at 50XCmax: 0
  State 3 respiration driven by succinate at 50XCmax: 0
  State 4 respiration driven by glutamate/malate at 50XCmax: 0
  State 4 respiration driven by succinate at 50XCmax: 0
  State 3 respiration driven by glutamate/malate at 100XCmax: 0
  State 3 respiration driven by succinate at 100XCmax: 0
  State 4 respiration driven by glutamate/malate at 100XCmax: 0
  State 4 respiration driven by succinate at 100XCmax: 0

## COc1cc2c(Nc3ccc(Br)cc3F)ncnc2cc1OCC1CCN(C)CC1 [Vandetanib]
RCC II; [6]
  RCC II at 1.0XCmax: 0
  RCC II at 2.5XCmax: 0
  RCC II at 5XCmax: 0
  RCC II at 10XCmax: 0
  RCC II at 20XCmax: 0
  RCC II at 30XCmax: 0
  RCC II at 50XCmax: 0
  RCC II at 100XCmax: 0
[1]
  Cytochrome c release 1XCmax: 0
  Cytochrome c release 2.5XCmax: 0
  Cytochrome c release 5XCmax: 0
  Cytochrome c release 10XCmax: 0
  Cytochrome c release 20XCmax: 0
  Cytochrome c release 30XCmax: 0
  Cytochrome c release 50XCmax: 0
  Cytochrome c release 100XCmax: 18.47±3.80 percentage of the positive control group
[1]; rat, 30 min, pH 7.4
  lowest concentration causing cytochrome c release: 100 fold Cmax
RCC V; [6]
  RCC V at 5XCmax: 0
RCC V; 50-fold Cmax
  RCC activity V: 95.65 ± 4.66 % of control
RCC V; 100-fold Cmax
  RCC activity V: 85.15 ± 8.36 % of control
RCC IV; 50-fold Cmax
  RCC activity IV: 100.56 ± 2.67 % of control
RCC IV; [6]
  RCC IV at 50XCmax: 0
RCC IV; 100-fold Cmax
  RCC activity IV: 103.06 ± 12.96 % of control
RCC III; 50-fold Cmax
  RCC activity III: 99.20 ± 5.61 % of control
RCC III; 100-fold Cmax
  RCC activity III: 91.23 ± 6.54 % of control
[2]
  MMP measured by Rhodamine 123 at 1XCmax: 0
  MMP measured by Rhodamine 123 at 2.5XCmax: 0
  MMP measured by Rhodamine 123 at 5XCmax: 0
  MMP measured by Rhodamine 123 at 10XCmax: 0
  MMP measured by Rhodamine 123 at 20XCmax: 0
  MMP measured by Rhodamine 123 at 30XCmax: 0
  MMP measured by Rhodamine 123 at 50XCmax: 0
  MMP measured by Rhodamine 123 at 100XCmax: 0
[3]
  ROS measured by CM-H2DCFDA at 1XCmax: 0
  ROS measured by CM-H2DCFDA at 2.5XCmax: 0
  ROS measured by CM-H2DCFDA at 5XCmax: 0
  ROS measured by CM-H2DCFDA at 10XCmax: 0
  ROS measured by CM-H2DCFDA at 20XCmax: 0
  ROS measured by CM-H2DCFDA at 30XCmax: 0
  ROS measured by CM-H2DCFDA at 50XCmax: 0
  ROS measured by CM-H2DCFDA at 100XCmax: 0
[4]; 1 = DILI positive, 0 = negative, ref product labeling
  DILI potential (based on labeling): 0
[4]; ref FDA product labeling
  DILI potential (based on labeling): 0
[5]
  State 3 respiration driven by glutamate/malate at 1XCmax: 0
  State 3 respiration driven by succinate at 1XCmax: 0
  State 4 respiration driven by glutamate/malate at 1XCmax: 0
  State 4 respiration driven by succinate at 1XCmax: 0
  State 3 respiration driven by glutamate/malate at 2.5XCmax: 0
  State 3 respiration driven by succinate at 2.5XCmax: 0
  State 4 respiration driven by glutamate/malate at 2.5XCmax: 0
  State 4 respiration driven by succinate at 2.5XCmax: 0
  State 3 respiration driven by glutamate/malate at 5XCmax: 0
  State 3 respiration driven by succinate at 5XCmax: 0
  State 4 respiration driven by glutamate/malate at 5XCmax: 0
  State 4 respiration driven by succinate at 5XCmax: 0
  State 3 respiration driven by glutamate/malate at 10XCmax: 0
  State 3 respiration driven by succinate at 10XCmax: 0
  State 4 respiration driven by glutamate/malate at 10XCmax: 0
  State 4 respiration driven by succinate at 10XCmax: 0
  State 3 respiration driven by glutamate/malate at 20XCmax: 0
  State 3 respiration driven by succinate at 20XCmax: 0
  State 4 respiration driven by glutamate/malate at 20XCmax: 0
  State 4 respiration driven by succinate at 20XCmax: 0
  State 3 respiration driven by glutamate/malate at 30XCmax: 0
  State 3 respiration driven by succinate at 30XCmax: 0
  State 4 respiration driven by glutamate/malate at 30XCmax: 0
  State 4 respiration driven by succinate at 30XCmax: 0
  State 3 respiration driven by glutamate/malate at 50XCmax: 0
  State 3 respiration driven by succinate at 50XCmax: 0
  State 4 respiration driven by glutamate/malate at 50XCmax: 0
  State 4 respiration driven by succinate at 50XCmax: 0
  State 3 respiration driven by glutamate/malate at 100XCmax: 0
  State 3 respiration driven by succinate at 100XCmax: 0
  State 4 respiration driven by glutamate/malate at 100XCmax: 0
  State 4 respiration driven by succinate at 100XCmax: 0
[5]; up to 100-fold Cmax or highest testable concentration
  effect on mitochondrial oxygen consumption: no effects
